Results from patent US20200270588A1, “GLUCOSYL TRANSFERASE POLYPEPTIDES AND METHODS OF USE” (Syngenta Participations AG, priority 2017, published 2020).

Tests used:
[1] = target: T1, SEQ ID NO 18, mutant of Zea mays bx9 glucosyl transferase (Zea mays, UniProt B4G072, A281K/A334K/F21Y/M279F/S117V); experiment: UDP-Glo glucosyl transferase assay, purified enzyme; assay type: biochemical; conditions: herbicide mM: V 0.300, VI 0.250, VII 0.210; IV, VIII, XI, XXI, XX, XVIII, XVI, XV, XIV 0.200; others 1.000
T1 construct: His tag (C); made in house
T1 sequence (B4G072 whole entry F21Y/S117V/M279F/A281K/A334K): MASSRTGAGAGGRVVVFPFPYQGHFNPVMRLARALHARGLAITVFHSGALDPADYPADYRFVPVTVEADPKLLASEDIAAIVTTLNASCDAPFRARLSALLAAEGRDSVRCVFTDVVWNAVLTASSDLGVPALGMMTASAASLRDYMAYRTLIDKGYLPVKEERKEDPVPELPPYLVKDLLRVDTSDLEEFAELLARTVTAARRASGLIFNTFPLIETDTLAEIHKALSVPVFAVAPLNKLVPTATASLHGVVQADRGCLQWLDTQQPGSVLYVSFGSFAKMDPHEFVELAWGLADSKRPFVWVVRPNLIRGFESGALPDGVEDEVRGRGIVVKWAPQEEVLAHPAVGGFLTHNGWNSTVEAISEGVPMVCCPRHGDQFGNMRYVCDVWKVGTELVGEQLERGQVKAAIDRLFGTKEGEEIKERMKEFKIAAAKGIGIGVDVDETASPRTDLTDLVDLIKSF
Protocol: (§1) Glucosyl transferase activity is assayed via measurement of acceptor substrate-dependent production of UDP from ultrapure UDP-glucose using the Promega UDP-Glo™ method and according to the manufacturer's instructions. Assays are run in 96 well microtiter plates.
(§2) Enzyme, typically at a stock concentration of ˜2 mg/ml is diluted to an appropriate concentration in 50 mM K^+ Hepes buffer at pH7.5 containing 0.5 mg/mL bovine serum albumin (BSA) and 5 ul aliquots of this diluted enzyme added to each well of a Perkin Elmer white ½ area 96 well plate. […] Assays are run for an appropriate time (usually 10 to 60 min) so that the amount of UDP formed lies within the most nearly linear part of the UDP standard curve and are stopped with the addition and mixing of 25 ul UDP-Glo™ detection reagent (prepared as described below). Plates are then incubated at room temperature for 60 minutes and then read in a luminescence plate reader (Perkin Elmer Envision 2130 Multilabel Reader). A UDP standard curve is run alongside each set of assays and reagent blank control assays run with DMSO in place of test herbicide. Typically, 300 pmol of UDP corresponds to a Relative Luminescence Unit (RLU) reading of about 1.5E7 and the response curve between 0 and 600 pmol is fitted to a polynomial function (see for example FIG. 2).
(§3) The UDP-Glo™ reagents are made up and used according to the manufacturer's instructions. Thus, Nucleotide Detection Buffer and ATP are combined to make nucleotide detection reagent (NDR) dispensed into aliquots and frozen to be freshly thawed before use. […]
(§4) Table 13 summarizes the results obtained from assays, run as described in Example 1, using a variety of alcohol and aminal PSII herbicides as substrates of the Zea mays bx9 w/t (i.e. C-terminally his tagged SEQ ID no 1) and various mutants of the same, selected from SEQ ID NO: 16-30). All of these proteins were C-terminally his-tagged, expressed and purified as described in Example 1. Assays were run and analyzed as described in example 1. It is seen that various of the mutations herein and combinations thereof led to significant improvements (over the w/t bx9 protein) in catalytic activity versus various of the herbicides and that these improvements are often of sufficient magnitude to be useful for conferring improved herbicide tolerance upon crop. This is especially the case given that even the unmutated w/t bx9 enzyme which has only modest glucosyl transferase activity (for example against compounds V and VI) was nevertheless adequately active to confer significant herbicide tolerance in the glass house (as shown in example 9) even without mutational improvement. It is also seen that particular mutations can lead to very much improved activity in respect of some chemistries but not to others but that, overall, there is at least one variant within the scope of the current invention that provides significant and useful improvement in tolerance to each of the chemistries tested.

[2] = target: T2, SEQ ID NO 19, mutant of Zea mays bx9 glucosyl transferase (Zea mays, UniProt B4G072, A281K/A334K/L194V/M279F/S117V); experiment: as above; assay type: biochemical; conditions: herbicide mM: V 0.300, VI 0.250, VII 0.210; IV, VIII, XI, XXI, XX, XVIII, XVI, XV, XIV 0.200; others 1.000
T2 construct: His tag (C); made in house
T2 sequence (B4G072 whole entry S117V/L194V/M279F/A281K/A334K): as the sequence (B4G072 whole entry F21Y/S117V/M279F/A281K/A334K) above, with Y21F, L194V counted along it
Protocol: as §1, §2, §3, §4

[3] = target: T3, SEQ ID NO 23, mutant of Zea mays bx9 glucosyl transferase (Zea mays, UniProt B4G072, A334K/F21Y/L194C/M279F/S117V); experiment: as above; assay type: biochemical; conditions: lower block, concentration printed only in upper block: V 0.300, VII 0.210; IV, VIII, XI, XXI, XX, XVIII, XVI, XV, XIV 0.200; others 1.000 mM
T3 construct: His tag (C); made in house
T3 sequence (B4G072 whole entry F21Y/S117V/L194C/M279F/A334K): as the sequence (B4G072 whole entry F21Y/S117V/M279F/A281K/A334K) above, with L194C, K281A counted along it
Protocol: as §1, §2, §3, §4

[4] = target: T4, SEQ ID NO 22, mutant of Zea mays bx9 glucosyl transferase (Zea mays, UniProt B4G072, A334K/F21Y/M279F/S117V/T220P); experiment: as above; assay type: biochemical; conditions: lower block, concentration printed only in upper block: V 0.300, VII 0.210; IV, VIII, XI, XXI, XX, XVIII, XVI, XV, XIV 0.200; others 1.000 mM
T4 construct: His tag (C); made in house
T4 sequence (B4G072 whole entry F21Y/S117V/T220P/M279F/A334K): as the sequence (B4G072 whole entry F21Y/S117V/M279F/A281K/A334K) above, with T220P, K281A counted along it

[5] = target: T5, SEQ ID NO 17, zmBX9 S117V, M279F, A334K mutant (Zea mays, UniProt B4G072, A334K/M279F/S117V); experiment: as above; assay type: biochemical; conditions: herbicide mM: V 0.300, VI 0.250, VII 0.210; IV, VIII, XI, XXI, XX, XVIII, XVI, XV, XIV 0.200; others 1.000
T5 construct: polypeptides were the C-terminally his-tagged; His tag (C); made in house
T5 sequence (B4G072 whole entry S117V/M279F/A334K): as the sequence (B4G072 whole entry F21Y/S117V/M279F/A281K/A334K) above, with Y21F, K281A counted along it

[6] = target: T6, SEQ ID NO 21, mutant of Zea mays bx9 glucosyl transferase (Zea mays, UniProt B4G072, A334K/F21Y/L194V/M279F/S117V); experiment: as above; assay type: biochemical; conditions: lower block, concentration printed only in upper block: V 0.300, VII 0.210; IV, VIII, XI, XXI, XX, XVIII, XVI, XV, XIV 0.200; others 1.000 mM
T6 construct: His tag (C); made in house
T6 sequence (B4G072 whole entry F21Y/S117V/L194V/M279F/A334K): as the sequence (B4G072 whole entry F21Y/S117V/M279F/A281K/A334K) above, with L194V, K281A counted along it

[7] = test system: transgenic tobacco plants expressing SEQ ID NO: 16; experiment: Glass house spray test on tobacco, percent damage; assay type: in vivo; conditions: for tolerance compared with w/t and SEQ ID NO: 1 plants: 200 and 500 g/ha, 14 DAT, several events
From the text: Three transgenic populations of about forty tobacco plants and comprising, a glucosyl transferase gene encoding either zmBX8 (SEQ ID NO 2) or zmBX9 (SEQ ID NO 1) were thus produced. A sub-set of about 30 plants were selected on the basis of similar size from each population for spray testing. The plants were then sprayed with 30 g/ha of Compound VI. VI was mixed in water with 0.2-0.25% X-77 surfactant and sprayed from a boom on a suitable track sprayer moving at 2 mph with the nozzle about 2 inches from the plant tops. Spray volume was 200 l/ha. Plants were assessed for damage and scored at 7 and 14 days after treatment (DAT).
In a further example, Zea mays BX8 or BX9 or orthologues of BX8/9, are altered to carry amino acid variants at various positions which increase tolerance to the alcohol and aminal PSII herbicides as described in the example above. DNA sequences that encode these polypeptides (optimized for tobacco or, optionally, codon optimized according to a target crop such as soybean) were prepared for tobacco transformation as described in example 10. […] Transgenic tobacco populations expressing SEQ ID NOs 16 and 17 were generated alongside a population expressing the parental zmBX9 sequence (SEQ ID 1). […] Plants were assessed for damage and scored at 14 days after treatment (DAT). The results are depicted in Table 19 and also in FIG. 6.

Structure (SMILES) | Activity [1] [pmol/sec/pmol enzyme] | Activity [2] [pmol/sec/pmol enzyme] | Activity [3] [pmol/sec/pmol enzyme] | Activity [4] [pmol/sec/pmol enzyme] | Activity [5] [pmol/sec/pmol enzyme] | Activity [6] [pmol/sec/pmol enzyme] | tolerance compared with w/t and SEQ ID NO: 1 plants [7] | tolerance ([7]; 1 kg/ha, events 7937, 7940, 7952, 8039, 8071, 8106 expressing SEQ ID NOs 16 and 17, data not shown)
CN1CC(O)N(c2cc(C(F)(F)F)c(Cl)cn2)C1=O (stereo not shown) [XI] | 0.710 | 0.898 | 0.227 | 0.548 | 0.120 | 0.374 |  | 
Cc1cnc(N2C(=O)N(C)CC2O)cc1C(F)(F)F (stereo not shown) [XVIII] | 0.898 | 0.964 | 0.253 | 0.933 | 0.231 | 0.425 |  | 
CN1CC(O)N(c2cc(C(F)(F)F)ccn2)C1=O (stereo not shown) [Compound V] | 1.582 | 1.651 | 1.246 | 1.221 | 0.565 | 1.548 | much superior tolerance | 
CON1C(=O)N(c2cc(C(F)(F)F)ccn2)C(O)[C@@H]1C (stereo partly shown) [Compound VI] |  |  |  |  | 1.003 |  | much superior tolerance | substantially fully tolerant
